We go through 26 compounds from ChEMBL document CHEMBL4732183, “Synthesis and evaluation of novel cyclopentane urea FPR2 agonists and their potential application in the treatment of cardiovascular inflammation” (Eur J Med Chem, 2021).

Molecules are shown by their SMILES.

Series [1] can be described thus: Distribution coefficient between octanol and PBS, log D of compound in pH 7.4 at 100 uM incubated for 12 hrs by LC-MS/MS analysis. The class given is physicochemical.
The nature of series [2]: Metabolic stability in human liver microsomes assessed as half life at 1 uM incubated for 30 mins by LC-MS/MS analysis. The class given is ADME, Microsome. In general terms: Microsomes from liver hold many membrane-bound enzymes, among them those of drug oxidation.
Series [3] in a line: Metabolic stability in mouse liver microsomes assessed as half life at 1 uM incubated for 30 mins by LC-MS/MS analysis. The class given is ADME, Microsome.
Series [4] is described as follows: Cmax in C57BL/6 mouse at 10 mg/kg, ip measured upto 24 hrs. The series is classed as ADME, organism-based. Details: route intraperitoneal, dose 10 mg/kg, time <=24. The following applies: in vivo.
Series [5] is described as follows: Tmax in C57BL/6 mouse at 10 mg/kg, ip measured upto 24 hrs. The series is classed as ADME, organism-based. The note with it: in vivo.
A short description of series [6]: Half life in C57BL/6 mouse at 10 mg/kg, ip measured upto 24 hrs. The series is classed as ADME, organism-based. The note with it: in vivo.
Series [7] in a line: AUC (0 to last) in C57BL/6 mouse at 10 mg/kg, ip measured upto 24 hrs. The series is classed as ADME, organism-based. More on the design: route intraperitoneal, dose 10 mg/kg, time <=24. The following applies: in vivo.
Series [8] in a line: AUC (0 to infinity) in C57BL/6 mouse at 10 mg/kg, ip measured upto 24 hrs. The series is classed as ADME, organism-based. The note with it: in vivo. More on the design: route intraperitoneal, dose 10 mg/kg, time <=24.
Series [9] in a line: AUC extrapolated in C57BL/6 mouse at 10 mg/kg, ip measured upto 24 hrs. The class given is ADME, organism-based. The following applies: in vivo.
Series [10] can be described thus: MRT (0 to last) in C57BL/6 mouse at 10 mg/kg, ip measured upto 24 hrs. The series is classed as ADME, organism-based. The following applies: in vivo.

A word on the logD: it is the decadic logarithm of the distribution of all forms, ionised or not, between an organic phase and buffer at a given pH. Read a low logD as a more hydrophilic compound. For orientation: half-life means the time needed for the level to fall by half in the phase considered. In series [1], `CN1CCC(NC(=O)C(NC(=O)Nc2ccc(Br)cc2)C2CCCC2)CC1` (configuration not stated) returned a logD at 12 h, 100 µM of 2.5. The half-life at 1 µM in series [2] stood at 1.83 h; in series [3], 7.95 h.
Compound `Cc1cncc(NC(=O)C2(NC(=O)Nc3ccc(Br)cc3)CCCC2)c1` displayed a logD at 12 h, 100 µM in series [1] of 3.7.
On to `O=C(Nc1ccc(Br)cc1)NC(CC1CCCCC1)C(=O)Nc1cccnc1` (configuration not stated), for which the logD at 12 h, 100 µM in [1] was more than 4. For the same compound, the half-life at 1 µM in series [2] turned out to be 1.02 h; in series [3] it was 0.183 h.
Regarding `CC(C)C[C@H](NC(=O)Nc1ccc(Br)cc1)C(=O)Nc1cccnc1`, the logD at 12 h, 100 µM in [1] came out at 4.2. Besides, the values for the half-life at 1 µM in series [2] and in series [3] were 1.58 h and 1.08 h, respectively.
Regarding `CN1CCC(NC(=O)C2(NC(=O)Nc3ccc(Br)cc3)CCCC2)CC1`, the logD at 12 h, 100 µM in series [1] came to 1.2. Moreover, the figures for the half-life at 1 µM in [2] and in series [3] were 2.62 h and 3.23 h, respectively.
For the compound `O=C(Nc1ccc(Br)cc1)NC(C(=O)Nc1cccnn1)C1CCCC1` (configuration not stated), the logD at 12 h, 100 µM in series [1] was more than 4. Moreover, the half-life at 1 µM was determined as 0.267 h in [2] and 0.183 h in [3].
In [1], `O=C(Nc1ccc(Br)cc1)NC1(C(=O)Nc2cncnc2)CCCC1` displayed a logD at 12 h, 100 µM of 3.7. The half-life at 1 µM in series [2] turned out to be 1.83 h; in [3] it was 1.73 h.
`O=C(Nc1ccc(Br)cc1)NC1(C(=O)Nc2ccccn2)CCCC1`: the logD at 12 h, 100 µM in series [1] stood at 4.3. The half-life at 1 µM is 0.133 h in series [2] and 0.15 h in series [3].
For `CC(C)n1cc(NC(=O)C(NC(=O)Nc2ccc(Br)cc2)C2CCCC2)cn1` (configuration not stated), the logD at 12 h, 100 µM in series [1] is more than 4.
The same measure, in the same setting: the result for `Cc1nn(C)cc1NC(=O)C(NC(=O)Nc1ccc(Br)cc1)C1CCCC1` (configuration not stated) reads more than 4.
`O=C(Nc1ccc(Br)cc1)NC(C(=O)Nc1cccnc1)C1CC1` (configuration not stated): the logD at 12 h, 100 µM in series [1] was more than 4. The half-life at 1 µM in series [2] was 1.33 h; in series [3] it was 0.683 h.
The like results for `O=C(Nc1ccc(Br)cc1)NC(C(=O)NC1COC1)C1CCCC1` (configuration not stated) were, in that order, 4.3, more than 6.67 h and more than 6.67 h.
Regarding `O=C(Nc1ccc(Br)cc1)NC(C(=O)NC1CCOCC1)C1CCCC1` (configuration not stated), the logD at 12 h, 100 µM in series [1] is more than 4. Also, the half-life at 1 µM in [2] worked out at 3.45 h; in [3], 1.73 h.
In series [1], `O=C(Nc1ccc(Br)cc1)NC(C(=O)NCC1CCCO1)C1CCCC1` (configuration not stated) gave a logD at 12 h, 100 µM of 4.7. Also, the half-life at 1 µM in series [2] was determined as 0.217 h; in series [3], 0.417 h.
The compound `O=C(Nc1ccc(Br)cc1)NC1(C(=O)Nc2ccc(Cl)nc2)CCCC1` returned a logD at 12 h, 100 µM in series [1] of 4.4. In addition, the half-life at 1 µM turned out to be 0.867 h in series [2] and 0.533 h in series [3].
On the same counts, the results for `CC(C)n1cc(NC(=O)C2(NC(=O)Nc3ccc(Br)cc3)CCCC2)cn1` are 4.2, 2.17 h and 1.5 h.
The like results for `O=C(Nc1ccc(Br)cc1)NC(C(=O)Nc1cncnc1)C1CCCC1` (configuration not stated) were, in that order, 4, 3.07 h and 1.53 h.
For orientation: Cmax means the highest concentration seen after dosing. What is called Tmax is the time from dosing to the highest level. Broadly, the AUC(0-t) is exposure summed from dosing to a finite time, without extrapolation to infinity. High values mean high exposure, low ones low exposure. The AUC(0-inf) is total exposure, with the tail of the curve extrapolated. Read a high AUC(0-inf) as high exposure. One may read the MRT last as a mean duration of stay, worked out from the concentration-time curve. Consider `O=C(Nc1ccc(Br)cc1)NC(C(=O)Nc1cccnc1)C1CCCC1` (configuration not stated), for which the logD at 12 h, 100 µM in series [1] is more than 4. The results for the half-life at 1 µM in series [2] and in series [3] were 1.38 h and 0.55 h, respectively. Moreover, the peak level in series [4] (Cmax) was 31900 ng/mL. Further, in series [5], the Tmax was 0.5 h. In series [6], the half-life was 2.08 h. In [7], the AUC(0-t) at 24 h came out at 69000 ng·h/mL. The same compound returned an AUC(0-inf) in series [8] of 69000 ng·h/mL. In [9], the “%AUCextra” value is on record as 0.02%. Also, the mean residence time MRT last at 24 h in series [10] worked out at 2.41 h.
Compound `O=C(CNC(=O)Nc1ccc(Br)cc1)Nc1cccnc1` returned a logD at 12 h, 100 µM in [1] of 3.6. Moreover, the half-life at 1 µM in series [2] came out at 1.87 h; in series [3] it was 0.367 h.
The like results for `O=C(Nc1ccc(Br)cc1)N[C@@H](CC1CC1)C(=O)Nc1cccnc1` were, in that order, more than 4, 1.52 h and 0.733 h.
In series [1], `Cc1nn(C)cc1NC(=O)C1(NC(=O)Nc2ccc(Br)cc2)CCCC1` showed a logD at 12 h, 100 µM of 3.1. For the same compound, the half-life at 1 µM came out at 2.6 h in series [2] and 3.78 h in [3].
As to `O=C(Nc1ccc(Br)cc1)NC1(C(=O)NCc2nn[nH]n2)CCCC1`, the logD at 12 h, 100 µM in [1] worked out at 1.1. In addition, the half-life at 1 µM was determined as 8.67 h in series [2] and 6.98 h in series [3].
In [1], `O=C(Nc1ccc(Br)cc1)NC(C(=O)Nc1cccnc1)C1CCOCC1` (configuration not stated) had a logD at 12 h, 100 µM of 4.7. The values for the half-life at 1 µM in series [2] and in series [3] were 3.13 h and 1.5 h, respectively.
With `O=C(Nc1ccc(Br)cc1)NC(C(=O)NC1CNC1)C1CCCC1` (configuration not stated), in [1], the logD at 12 h, 100 µM was found to be 1.6.
In turn, `Cc1ccc(NC(=O)C2(NC(=O)Nc3ccc(Br)cc3)CCCC2)cn1` came in with a logD at 12 h, 100 µM in series [1] of 3.9. In addition, the figures for the half-life at 1 µM in [2] and in series [3] were 1.67 h and 0.6 h, respectively.
The like results for `O=C(Nc1ccc(Br)cc1)NC1(C(=O)Nc2cccnc2)CCCC1` were, in that order, 4.1, 1.8 h and 1.32 h.
